Measured values as given in patent US9174942B2, “IDO inhibitors” (NewLink Genetics Corporation, priority 2008, dated 2015).
pIC50: −log10 of the molar value. Where a name gives a salt, the structure may show the parent alone.

Each compound was assayed against T1, purified human IDO protein (Homo sapiens, UniProt P14902, E119G/P110S) (assay: Enzymatic IDO assay (kynurenine formation, absorbance at 480 nm)). Conditions: recombinant human IDO, 200 μM L-tryptophan, pH 6.5; reported in ranges.
T1 construct: 6-Histidine tag (C); made in house; host or cells: E. coli M15(pREP4) transformed with pQE70-hIDO
T1 sequence (P14902 whole entry P110S/E119G): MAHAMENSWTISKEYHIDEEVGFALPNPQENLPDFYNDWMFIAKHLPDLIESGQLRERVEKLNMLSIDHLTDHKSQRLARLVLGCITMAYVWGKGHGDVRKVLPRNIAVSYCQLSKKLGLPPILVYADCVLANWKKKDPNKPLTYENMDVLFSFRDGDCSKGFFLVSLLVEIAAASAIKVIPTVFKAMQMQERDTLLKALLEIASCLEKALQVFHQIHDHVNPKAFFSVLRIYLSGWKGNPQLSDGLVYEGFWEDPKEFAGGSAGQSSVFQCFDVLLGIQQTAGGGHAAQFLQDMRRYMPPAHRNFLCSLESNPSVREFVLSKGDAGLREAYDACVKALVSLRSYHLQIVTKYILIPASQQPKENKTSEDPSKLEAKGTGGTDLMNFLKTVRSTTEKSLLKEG
Format: biochemical
Procedure: The inhibitors were initially diluted in DMSO at 100 mM and were diluted in potassium phosphate 50 mM, added to the reaction mixture at final concentrations raging from 1 mM to 5 nM and preincubated with the enzyme for 5 min at 25° C. The reaction was started by addition of L-tryptophan to 200 μM and incubated 15 min at 37° C. The reaction was stopped by addition of 0.5 vol of 30% trichloroacetic acid and incubated 30 min at 60° C. to hydrolyze N-formylkynurenine to kynurenine. The reaction was centrifuged at 3400 g for 5 min to remove precipitated protein and the supernatant was reacted with 2% (w/v) of p-dimethylaminobenzaldehyde in acetic acid. The reaction was incubated 10 min at 25° C. and read at 480 nm in a spectrophotometer. […] Nonlinear regressions and determination of the IC50 values were performed using the GraphPad Prism 4 software.

Compound | pIC50
N#Cc1ccc(Cn2cncc2-c2ccccc2)cc1 [Compound 97, 4-((5-phenyl-1H-imidazol-1-yl)methyl)benzonitrile] | 4.00 to 4.70
Oc1cc(Cl)ccc1-c1cnc[nH]1 [Compound 63, 5-chloro-2-(1H-imidazol-5-yl)phenol] | 4.00 to 4.70
NC(=O)C1CCC(=CCOc2ccccc2-c2c[nH]cn2)CC1 (stereo not drawn) [Compound 168, 4-(2-(2-(1H-imidazol-4-yl)phenoxy)ethylidene)cyclohexanecarboxamide] | > 4.70
CC(C)(CCO)CCOc1ccccc1-c1c[nH]cn1 [Compound 167, 5-(2-(1H-imidazol-4-yl)phenoxy)-3,3-dimethylpentan-1-ol] | 4.00 to 4.70
Nc1ccccc1-c1cnc[nH]1 [Compound 155, 2-(1H-imidazol-4-yl)aniline] | 4.00 to 4.70
CCOC(=O)CCn1cncc1-c1ccccc1 [Compound 122, ethyl 3-(5-phenyl-1H-imidazol-1-yl)propanoate] | 3.30 to 4.00
CC(C)(C)COc1ccccc1-c1c[nH]cn1 [Compound 31, 4-(2-(neopentyloxy)phenyl)-1H-imidazole] | > 4.70
COC(=O)c1cccc(-c2c[nH]cn2)c1 [Compound 112, methyl 3-(1H-imidazol-4-yl)benzoate] | 3.30 to 4.00
Oc1ccccc1-c1cc[nH]n1 [Compound 43, 2-(1H-pyrazol-3-yl)phenol] | > 4.70
CS(=O)(=O)N1CCC(COc2ccccc2-c2c[nH]cn2)CC1 [Compound 84, 4-((2-(1H-imidazol-4-yl)phenoxy)methyl)-1-(methylsulfonyl)piperidine] | 4.00 to 4.70
Clc1ccc(CNc2ccccc2-c2c[nH]cn2)cc1 [Compound 62, N-(4-chlorobenzyl)-2-(1H-imidazol-4-yl)aniline] | 4.00 to 4.70
CC(C)(C)CCn1cncc1-c1ccccc1 [Compound 32, 1-(3,3-dimethylbutyl)-5-phenyl-1H-imidazole] | > 4.70
N#Cc1cccc(COc2ccccc2-c2c[nH]cn2)c1 [Compound 74, 3-((2-(1H-imidazol-4-yl)phenoxy)methyl)benzonitrile] | 4.00 to 4.70
Sc1ccccc1-c1c[nH]cn1 [Compound 23, 2-(1H-imidazol-5-yl) benzenethiol] | > 4.70
CC(C)(C)OC(=O)Nc1ccccc1-c1c[nH]cn1 [Compound 152, tert-butyl 2-(1H-imidazol-4-yl)phenylcarbamate] | > 4.70
Clc1ccccc1Cn1cncc1-c1ccccc1 [Compound 52, 1-(2-chlorobenzyl)-5-phenyl-1H-imidazole] | > 4.70
COc1cccc(OC)c1-c1c[nH]cn1 [Compound 103, 5-(2,6-dimethoxyphenyl)-1H-imidazole] | 3.30 to 4.00
COc1cccc(Cn2cncc2-c2ccccc2)c1 [Compound 93, 1-(3-methoxybenzyl)-5-phenyl-1H-imidazole] | 4.00 to 4.70
Clc1ccc(COc2cc(Cl)ccc2-c2c[nH]cn2)cc1 [Compound 147, 4-(4-chloro-2-(4-chlorobenzyloxy)phenyl)-1H-imidazole] | 4.00 to 4.70

Compound | pIC50
Oc1ccc(O)c(-c2c[nH]cn2)c1 [Compound 21, 2-(1H-imidazol-4-yl)benzene-1,4-diol] | > 4.70
Fc1cc(F)cc(-c2c[nH]cn2)c1 [Compound 59, 4-(3,5-difluorophenyl)-1H-imidazole] | 4.00 to 4.70
CSc1ccccc1-c1c[nH]cn1 [Compound 1, 5-(2-(methylthio)phenyl)-1H-imidazole] | 4.00 to 4.70
COc1cccc(O)c1-c1c[nH]cn1 [Compound 41, 2-(1H-imidazol-4-yl)-3-methoxyphenol] | > 4.70
NC(=O)c1ccc(COc2ccccc2-c2c[nH]cn2)cc1 [Compound 146, 4-((2-(1H-imidazol-4-yl)phenoxy)methyl)benzamide] | 4.00 to 4.70
c1ccc(-c2c[nH]cn2)c(OCC2CCCNC2)c1 (stereo not drawn) [Compound 76, 3-((2-(1H-imidazol-4-yl)phenoxy)methyl)piperidine] | 4.00 to 4.70
CC(C)(C)CCOc1cccc(O)c1-c1cnc[nH]1 [Compound 13, 3-(3,3-dimethylbutoxy)-2-(1H-imidazol-5-yl) phenol hydrochloride] | > 4.70
COC(=O)CCC(C)(C)CCOc1ccccc1-c1c[nH]cn1 [Compound 79, methyl 6-(2-(1H-imidazol-4-yl)phenoxy)-4,4-dimethylhexanoate] | 4.00 to 4.70
Cc1ccc(COc2ccccc2-c2c[nH]cn2)cc1 [Compound 66, 4-(2-(4-methylbenzyloxy)phenyl)-1H-imidazole] | 4.00 to 4.70
N#Cc1ccc(COc2ccccc2-c2c[nH]cn2)cc1 [Compound 55, 4-((2-(1H-imidazol-4-yl)phenoxy)methy)benzonitrile] | 4.00 to 4.70
CNC(=O)CCC(C)(C)CCOc1ccccc1-c1c[nH]cn1 [Compound 38, 6-(2-(1H-imidazol-4-yl)phenoxy)-N,4,4-trimethylhexanamide] | > 4.70
Clc1ccc(COc2c(Br)cccc2-c2c[nH]cn2)cc1 [Compound 60, 4-(3-bromo-2-(4-chlorobenzyloxy)phenyl)-1H-imidazole] | 4.00 to 4.70
Oc1cccc(Cn2cncc2-c2ccccc2)c1 [Compound 51, 3-((5-phenyl-1H-imidazol-1-yl)methyl)phenol] | > 4.70
Clc1ccc(Cn2cncc2-c2ccccc2)cc1 [Compound 54, 1-(4-chlorobenzyl)-5-phenyl-1H-imidazole] | 4.00 to 4.70
CC(=O)Nc1ccccc1CCOc1ccccc1-c1c[nH]cn1 [Compound 165, N-(2-(2-(2-(1H-imidazol-4-yl)phenoxy)ethyl)phenyl) acetamide] | 3.30 to 4.00
c1ccc(CCc2nc[nH]c2-c2ccccc2)cc1 [Compound 126, 4-phenethyl-5-phenyl-1H-imidazole] | 3.30 to 4.00
Oc1ccc(C(F)(F)F)cc1-c1c[nH]cn1 [Compound 156, 2-(1H-imidazol-4-yl)-4-(trifluoromethyl)phenol] | > 4.70
N#Cc1cccc(-c2c[nH]cn2)c1 [Compound 94, 3-(1H-imidazol-5-yl)benzonitrile] | 4.00 to 4.70
Cc1ccccc1COc1ccccc1-c1c[nH]cn1 [Compound 37, 4-(2-(2-methylbenzyloxy)phenyl)-1H-imidazole] | > 4.70

Compound | pIC50
N#Cc1ccccc1Cn1cncc1-c1ccccc1 [Compound 96, 2-((5-phenyl-1H-imidazol-1-yl)methyl)benzonitrile] | 4.00 to 4.70
c1ccc(-c2c[nH]cn2)c(OCC2CCNCC2)c1 [Compound 157, 4-((2-(1H-imidazol-4-yl)phenoxy)methyl)piperidine] | 4.00 to 4.70
NCCn1cncc1-c1ccccc1 [Compound 118, 2-(5-phenyl-1H-imidazol-1-yl)ethanamine] | 3.30 to 4.00
Clc1ccccc1CCOc1ccccc1-c1c[nH]cn1 [Compound 15, 4-(2-(2-chlorophenethoxy)phenyl)-1H-imidazole] | > 4.70
CC(=O)NCCC(C)(C)CCOc1ccccc1-c1c[nH]cn1 [Compound 53] | > 4.70
CC(C)(CCOc1ccccc1-c1c[nH]cn1)CCn1c(=O)c(F)cn([C@@H]2O[C@H](CO)[C@@H](O)[C@H]2O)c1=O [Compound 162, 3-(5-(2-(1H-imidazol-4-yl)phenoxy)-3,3-dimethylpentyl)-1-((2R,3R,4S,5R)-3,4-dihydroxy-5-(hydroxymethyl)tetrahydrofuran-2-yl)-5-fluoropyrimidine-2,4(1H,3H)-dione] | > 4.70
c1ccc(Cc2nc[nH]c2-c2ccccc2)cc1 [Compound 123, 4-benzyl-5-phenyl-1H-imidazole] | 3.30 to 4.00
Clc1ccc(COc2ccc(OCc3ccc(Cl)cc3)c(-c3c[nH]cn3)c2)cc1 [Compound 91, 4-(2,5-bis(4-chlorobenzyloxy)phenyl)-1H-imidazole] | 4.00 to 4.70
c1cnc(NCCCOc2ccccc2-c2cnc[nH]2)nc1 [Compound 98, N-(3-(2-(1H-imidazol-5-yl)phenoxy)propyl)pyrimidin-2-amine] | 3.30 to 4.00
Cc1ccc(Cn2cncc2-c2ccccc2)cc1 [Compound 72, 1-(4-methylbenzyl)-5-phenyl-1H-imidazole] | 4.00 to 4.70
CC(=O)NCCCn1cncc1-c1ccccc1 [Compound 124, N-(3-(5-phenyl-1H-imidazol-1-yl)propyl)acetamide] | 3.30 to 4.00
Cc1ccccc1Cn1cncc1-c1ccccc1 [Compound 77, 1-(2-methylbenzyl)-5-phenyl-1H-imidazole] | 4.00 to 4.70
CC(=O)N1CCCC(COc2ccccc2-c2c[nH]cn2)C1 (stereo not drawn) [Compound 117, 1-(3-((2-(1H-imidazol-4-yl)phenoxy)methyl)piperidin-1-yl)ethanone] | 3.30 to 4.00
Brc1cccc(-c2cnc[nH]2)c1 [Compound 27, 5-(3-bromophenyl)-1H-imidazole] | > 4.70
CS(=O)(=O)Nc1ccccc1-c1c[nH]cn1 [Compound 101, N-(2-(1H-imidazol-4-yl)phenyl)methanesulfonamide] | 3.30 to 4.00
CC(=O)Nc1cccc(CCOc2ccccc2-c2c[nH]cn2)c1 [Compound 40, N-(3-(2-(2-(1H-imidazol-4-yl)phenoxy)ethyl)phenyl) acetamide] | > 4.70
COC(=O)c1ccc(-c2c[nH]cn2)cc1 [Compound 115, methyl 4-(1H-imidazol-4-yl)benzoate] | 3.30 to 4.00
COc1ccccc1-c1cncn1CCC(C)(C)C [Compound 89, 1-(3,3-dimethylbutyl)-5-(2-methoxyphenyl)-1H-imidazole] | 4.00 to 4.70
NC(=O)COc1ccccc1-c1c[nH]cn1 [Compound 104, 2-(2-(1H-imidazol-4-yl)phenoxy)acetamide] | 3.30 to 4.00
